# From the supplement of paper PMC10307832
# Legend:
# Test in all cases: relative viability (nuclei count vs DMSO), 5 days (fraction); higher = more cells survive
# ABC-1 = tested on: ABC-1
# Outline: (§1)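 The day after seeding in 1536-well plates, lung cancer cell lines were treated by pin tool with a single drug, or with a fixed anchor-drug dose together with five library-drug doses (not always all listed) in √10 steps. After 5 days, a combined fix-and-stain solution (final 0.05% Triton X-100, 1% formaldehyde, 1 ug/ml Hoechst) was added. Nuclei counted on 4× images gave relative viability as treated counts over vehicle counts, reported as the median of duplicate plates.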
# HARA = tested on: HARA
# Outline: as §1
# NCI-H322M = tested on: NCI-H322M
# Outline: as §1
# HOP-62 = tested on: HOP-62
# Outline: as §1
# NCI-H1993 = tested on: NCI-H1993
# Outline: as §1
# NCI-H2170 = tested on: NCI-H2170
# Outline: as §1
# NCI-H2009 = tested on: NCI-H2009
# Outline: as §1
# NCI-H2228 = tested on: NCI-H2228
# Outline: as §1
# NCI-H522 = tested on: NCI-H522
# Outline: as §1
# EMC-BAC-2 = tested on: EMC-BAC-2
# Outline: as §1
# NCI-H3122 = tested on: NCI-H3122
# Outline: as §1
# SK-MES-1 = tested on: SK-MES-1
# Outline: as §1
# LK-2 = tested on: LK-2
# Outline: as §1
# SW 1573 = tested on: SW 1573
# Outline: as §1
# NCI-H596 = tested on: NCI-H596
# Outline: as §1
# NCI-H1944 = tested on: NCI-H1944
# Outline: as §1
# LXF-289 = tested on: LXF-289
# Outline: as §1
# A-427 = tested on: A-427
# Outline: as §1
# NCI-H727 = tested on: NCI-H727
# Outline: as §1
# PC-3 [JPC-3] = tested on: PC-3 [JPC-3]
# Outline: as §1
# SW 900 = tested on: SW 900
# Outline: as §1
smiles,measurement,setting,value
O=c1cc(N2CCOCC2)oc2c(-c3cccc4c3sc3ccccc34)cccc12 + Cc1cc(Nc2cc(N3CCN(C)CC3)nc(Sc3ccc(NC(=O)C4CC4)cc3)n2)n[nH]1 [Tozasertib] (partner 0.1 µM),relative viability,ABC-1; first compound 0.01 µM,0.186
same,relative viability,ABC-1; first compound 0.03162 µM,0.178
same,relative viability,ABC-1; first compound 0.1 µM,0.222
same,relative viability,ABC-1; first compound 0.3162 µM,0.21
same,relative viability,ABC-1; first compound 1 µM,0.164
same,relative viability,HARA; first compound 0.01 µM,0.139
same,relative viability,HARA; first compound 0.03162 µM,0.139
same,relative viability,HARA; first compound 0.1 µM,0.477
same,relative viability,HARA; first compound 0.3162 µM,0.103
same,relative viability,HARA; first compound 1 µM,0.128
same,relative viability,NCI-H322M; first compound 0.01 µM,0.49
same,relative viability,NCI-H322M; first compound 0.03162 µM,0.464
same,relative viability,NCI-H322M; first compound 0.1 µM,0.485
same,relative viability,NCI-H322M; first compound 0.3162 µM,0.473
same,relative viability,NCI-H322M; first compound 1 µM,0.407
same,relative viability,HOP-62; first compound 0.01 µM,0.336
same,relative viability,HOP-62; first compound 0.03162 µM,0.315
same,relative viability,HOP-62; first compound 0.1 µM,0.402
same,relative viability,HOP-62; first compound 0.3162 µM,0.325
same,relative viability,HOP-62; first compound 1 µM,0.382
same,relative viability,NCI-H1993; first compound 0.01 µM,0.554
same,relative viability,NCI-H1993; first compound 0.03162 µM,0.581
same,relative viability,NCI-H1993; first compound 0.1 µM,0.569
same,relative viability,NCI-H1993; first compound 0.3162 µM,0.566
same,relative viability,NCI-H1993; first compound 1 µM,0.62
same,relative viability,NCI-H2170; first compound 0.01 µM,0.741
same,relative viability,NCI-H2170; first compound 0.03162 µM,0.673
same,relative viability,NCI-H2170; first compound 0.1 µM,0.758
same,relative viability,NCI-H2170; first compound 0.3162 µM,0.801
same,relative viability,NCI-H2170; first compound 1 µM,0.707
same,relative viability,NCI-H2009; first compound 0.01 µM,0.747
same,relative viability,NCI-H2009; first compound 0.03162 µM,0.704
same,relative viability,NCI-H2009; first compound 0.1 µM,0.8
same,relative viability,NCI-H2009; first compound 0.3162 µM,0.708
same,relative viability,NCI-H2009; first compound 1 µM,0.708
same,relative viability,NCI-H2228; first compound 0.01 µM,0.331
same,relative viability,NCI-H2228; first compound 0.03162 µM,0.267
same,relative viability,NCI-H2228; first compound 0.1 µM,0.217
same,relative viability,NCI-H2228; first compound 0.3162 µM,0.224
same,relative viability,NCI-H2228; first compound 1 µM,0.228
same,relative viability,NCI-H522; first compound 0.01 µM,0.548
same,relative viability,NCI-H522; first compound 0.03162 µM,0.607
same,relative viability,NCI-H522; first compound 0.1 µM,0.594
same,relative viability,NCI-H522; first compound 0.3162 µM,0.551
same,relative viability,NCI-H522; first compound 1 µM,0.61
same,relative viability,EMC-BAC-2; first compound 0.01 µM,0.303
same,relative viability,EMC-BAC-2; first compound 0.03162 µM,0.29
same,relative viability,EMC-BAC-2; first compound 0.1 µM,0.313
same,relative viability,EMC-BAC-2; first compound 0.3162 µM,0.33
same,relative viability,EMC-BAC-2; first compound 1 µM,0.304
same,relative viability,NCI-H3122; first compound 0.01 µM,0.39
same,relative viability,NCI-H3122; first compound 0.03162 µM,0.418
same,relative viability,NCI-H3122; first compound 0.1 µM,0.417
same,relative viability,NCI-H3122; first compound 0.3162 µM,0.378
same,relative viability,NCI-H3122; first compound 1 µM,0.349
same,relative viability,SK-MES-1; first compound 0.01 µM,0.964
same,relative viability,SK-MES-1; first compound 0.03162 µM,0.935
same,relative viability,SK-MES-1; first compound 0.1 µM,1.05
same,relative viability,SK-MES-1; first compound 0.3162 µM,0.897
same,relative viability,SK-MES-1; first compound 1 µM,0.875
same,relative viability,LK-2; first compound 0.01 µM,0.164
same,relative viability,LK-2; first compound 0.03162 µM,0.161
same,relative viability,LK-2; first compound 0.1 µM,0.17
same,relative viability,LK-2; first compound 0.3162 µM,0.166
same,relative viability,LK-2; first compound 1 µM,0.17
same,relative viability,SW 1573; first compound 0.01 µM,0.198
same,relative viability,SW 1573; first compound 0.03162 µM,0.159
same,relative viability,SW 1573; first compound 0.1 µM,0.164
same,relative viability,SW 1573; first compound 0.3162 µM,0.157
same,relative viability,SW 1573; first compound 1 µM,0.166
same,relative viability,NCI-H596; first compound 0.01 µM,0.834
same,relative viability,NCI-H596; first compound 0.03162 µM,0.939
same,relative viability,NCI-H596; first compound 0.1 µM,0.921
same,relative viability,NCI-H596; first compound 0.3162 µM,0.865
same,relative viability,NCI-H596; first compound 1 µM,1.03
same,relative viability,NCI-H1944; first compound 0.01 µM,0.246
same,relative viability,NCI-H1944; first compound 0.03162 µM,0.249
same,relative viability,NCI-H1944; first compound 0.1 µM,0.241
same,relative viability,NCI-H1944; first compound 0.3162 µM,0.245
same,relative viability,NCI-H1944; first compound 1 µM,0.244
same,relative viability,LXF-289; first compound 0.01 µM,0.235
same,relative viability,LXF-289; first compound 0.03162 µM,0.216
same,relative viability,LXF-289; first compound 0.1 µM,0.218
same,relative viability,LXF-289; first compound 0.3162 µM,0.174
same,relative viability,LXF-289; first compound 1 µM,0.197
same,relative viability,A-427; first compound 0.01 µM,0.232
same,relative viability,A-427; first compound 0.03162 µM,0.201
same,relative viability,A-427; first compound 0.1 µM,0.212
same,relative viability,A-427; first compound 0.3162 µM,0.223
same,relative viability,A-427; first compound 1 µM,0.212
same,relative viability,NCI-H727; first compound 0.01 µM,0.607
same,relative viability,NCI-H727; first compound 0.03162 µM,0.644
same,relative viability,NCI-H727; first compound 0.1 µM,0.673
same,relative viability,NCI-H727; first compound 0.3162 µM,0.632
same,relative viability,NCI-H727; first compound 1 µM,0.673
same,relative viability,PC-3 [JPC-3]; first compound 0.01 µM,0.855
same,relative viability,PC-3 [JPC-3]; first compound 0.03162 µM,0.884
same,relative viability,PC-3 [JPC-3]; first compound 0.1 µM,0.879
same,relative viability,PC-3 [JPC-3]; first compound 0.3162 µM,0.842
same,relative viability,PC-3 [JPC-3]; first compound 1 µM,0.852
same,relative viability,SW 900; first compound 0.01 µM,0.505
same,relative viability,SW 900; first compound 0.03162 µM,0.651
same,relative viability,SW 900; first compound 0.1 µM,0.656
same,relative viability,SW 900; first compound 0.3162 µM,0.574
same,relative viability,SW 900; first compound 1 µM,0.548
